This is an account of results in patent US7390812B2, “N, N'-disubstituted piperazine compounds and their use as analgesics” (Gruenenthal GmbH, priority 2001, dated 2008).

The inhibition is the change of the read-out against control, counted positive when it falls. Low values mean a response near the control, high ones a response far below the control.

Experiment [1] concerns the target T1, NA transporter (Rattus norvegicus, UniProt Q63380).
T1 construct: synaptosomes were freshly isolated from rat brain regions; from tissue; host or cells: rat hypothalamus synaptosomes (P2 fraction)
The experiment can be described thus: Noradrenaline reuptake inhibition (NA uptake inhibition) in synaptosomes. The class given is biochemical. To be noted: synaptosomes from hypothalamus of male rat brains. As to the method:
In order to be able to carry out these in vitro studies, synaptosomes were freshly isolated from rat brain regions. A so-called “P2” fraction was used, which was prepared according to the instructions given by Gray and Whittaker (E. G. Gray and V. P. Whittaker (1962) J. Anat. 76, 79-88).

The test system of experiment [2] is binding site 2 of the sodium channel. The experiment can be described thus: Binding investigations at sodium channel binding site 2 (BTX binding). The note with it: 10 μM; rat cerebrocortex synaptosomes; [3H]-Batrachotoxinin A20 α-benzoate 10 nM; 37° C., 120 min. As to the method:
Binding Investigations at Sodium Channel Binding Site 2
Binding site 2 of the sodium channel is the so-called batrachotoxin (BTX) binding site. [^3H]-Batrachotoxinin A20 α-benzoate (10 nM in the batch) was used as ligand. These ion channel particles (synaptosomes) were enriched from rat cerebrocortex after Gray and Whittaker (E. G. Gray and V. P. Whittaker (1962) J. Anat. 76, 79-88). The radioactivity measured in the presence of veratridine (0.3 mM in the batch) is defined as non-specific binding.
The assay conditions were as published by Pauwels, Leysen and Laduron (P. J. Pauwels, J. E. Leysen and P. M. Laduron (1986) Eur. J. Pharmacol. 124, 291-298). Incubation at 37° C. for 120 min.

T1 sequence (Q63380 1-617): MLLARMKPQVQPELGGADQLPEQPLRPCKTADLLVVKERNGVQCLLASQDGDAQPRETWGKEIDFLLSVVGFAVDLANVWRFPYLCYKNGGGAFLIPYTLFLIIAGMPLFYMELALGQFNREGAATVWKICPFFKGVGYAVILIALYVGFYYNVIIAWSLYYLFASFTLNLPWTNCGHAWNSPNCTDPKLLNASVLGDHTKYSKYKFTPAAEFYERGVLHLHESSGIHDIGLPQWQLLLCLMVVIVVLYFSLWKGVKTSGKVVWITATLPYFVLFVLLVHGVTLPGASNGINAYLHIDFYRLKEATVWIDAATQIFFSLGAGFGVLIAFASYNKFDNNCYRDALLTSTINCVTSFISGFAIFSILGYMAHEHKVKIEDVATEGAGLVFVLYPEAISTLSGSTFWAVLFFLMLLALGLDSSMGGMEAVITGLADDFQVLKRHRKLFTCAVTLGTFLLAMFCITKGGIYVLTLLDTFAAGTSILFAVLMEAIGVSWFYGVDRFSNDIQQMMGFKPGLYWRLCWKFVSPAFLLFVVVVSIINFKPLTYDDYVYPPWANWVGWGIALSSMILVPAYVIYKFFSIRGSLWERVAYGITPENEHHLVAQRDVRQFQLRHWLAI

In turn, `Cc1ccc(C2(O)CCCCC2CN2CCN(C)CC2)cc1` (stereo not drawn) [2-(4-Methyl-piperazin-1-ylmethyl)-1-p-tolyl-cyclohexanol] displayed an inhibition at 10 µM in experiment [1] of 75%. Also, the “BTX binding at 10 μM [%] inhibition” value in experiment [2] is reported as 53%.

In the case of `CN1CCN(CC2CCCCCCC2(O)CCc2ccccc2)CC1` (stereo not drawn) [2-(4-Methyl-piperazin-1-ylmethyl)-1-phenethyl-cyclooctanol], at 10 µM the inhibition in experiment [1] was 61%. In experiment [2], the “BTX binding at 10 μM [%] inhibition” value came to 78%.

In experiment [1], `Cc1cc(C2(O)CCCCC2CN2CCN(C)CC2)ccc1F` (stereo not drawn) [1-(4-Fluoro-3-methyl-phenyl)-2-(4-methyl-piperazin-1-ylmethyl)-cyclohexanol] came in with an inhibition at 10 µM of 65%. Besides, the “BTX binding at 10 μM [%] inhibition” value in experiment [2] worked out at 60%.

Take `CN1CCN(CC2CCCCCC2(O)c2ccccc2)CC1` (stereo not drawn) [2-(4-Methyl-piperazin-1-ylmethyl)-1-phenyl-cycloheptanol]: 10 µM produced 50% inhibition in experiment [1]. The “BTX binding at 10 μM [%] inhibition” value in experiment [2] is listed as 63%.

In turn, `CN1CCN(CC2CCCCCC2(O)c2ccc(Cl)cc2)CC1` (stereo not drawn) [1-(4-Chloro-phenyl)-2-(4-methyl-piperazin-1-ylmethyl)-cycloheptanol] yielded an inhibition at 10 µM in experiment [1] of 70%. Besides, the “BTX binding at 10 μM [%] inhibition” value in experiment [2] is given as 69%.

In experiment [1], `Cc1cc(C2(O)CCCCCC2CN2CCN(C)CC2)ccc1F` (stereo not drawn) [1-(4-Fluoro-3-methyl-phenyl)-2-(4-methyl-piperazin-1-ylmethyl)-cycloheptanol] returned an inhibition at 10 µM of 66%. For the same compound, the “BTX binding at 10 μM [%] inhibition” value in experiment [2] came out at 69%.

Regarding `Cc1cccc(C2(O)CCCCC2CN2CCN(C)CC2)c1` (stereo not drawn) [2-(4-Methyl-piperazin-1-ylmethyl)-1-m-tolyl-cyclohexanol], in experiment [1], the inhibition at 10 µM is 44%. Moreover, the “BTX binding at 10 μM [%] inhibition” value in experiment [2] is 58%.

Consider `CCC(O)(CCc1ccccc1)C(C)CN1CCN(C)CC1` (stereo not drawn) [3-Ethyl-2-methyl-1-(4-methyl-piperazin-1-yl)-5-phenyl-pentan-3-ol], for which the inhibition at 10 µM in experiment [1] stood at 88%. The “BTX binding at 10 μM [%] inhibition” value in experiment [2] was determined as 74%.

On to `CCC(O)(c1cccc(C)c1)C(C)CN1CCN(c2cccc(Cl)c2)CC1` (stereo not drawn) [1-[4-(3-Chloro-phenyl)-piperazin-1-yl]-2-methyl-3-m-tolyl-pentan-3-ol], for which, in experiment [1], 10 µM produced 42% inhibition.

As to `CCC(O)(c1ccc(F)cc1)C(C)CN1CCN(c2cccc(Cl)c2)CC1` (stereo not drawn) [1-[4-(3-Chloro-phenyl)-piperazin-1-yl]-3-(4-fluoro-phenyl)-2-methyl-pentan-3-ol], 10 µM produced 53% inhibition in experiment [1].

In experiment [1], `CCC(O)(CCCc1ccccc1)C(C)CN1CCN(c2cccc(Cl)c2)CC1` (stereo not drawn) [1-[4-(3-Chloro-phenyl)-piperazin-1-yl]-3-ethyl-2-methyl-6-phenyl-hexan-3-ol] returned an inhibition at 10 µM of 55%.

In turn, `CN1CCN(CC2CCCCC2(O)c2ccc(F)cc2)CC1` (stereo not drawn) [1-(4-Fluoro-phenyl)-2-(4-methyl-piperazin-1-ylmethyl)-cyclohexanol] had an inhibition at 10 µM in experiment [1] of 51%.

On to `CN1CCN(CC2CCCCC2(O)CCc2ccccc2)CC1` (stereo not drawn) [2-(4-Methyl-piperazin-1-ylmethyl)-1-phenethyl-cyclohexanol], for which testing at 10 µM in experiment [1] gave an inhibition of 71%. The “BTX binding at 10 μM [%] inhibition” value in experiment [2] is 65%.

As to `CCC(O)(Cc1cccc(F)c1)C(C)CN1CCN(c2cccc(Cl)c2)CC1` (stereo not drawn) [1-[4-(3-Chloro-phenyl)-piperazin-1-yl]-3-(3-fluoro-benzyl)-2-methyl-pentan-3-ol], in experiment [1], the inhibition at 10 µM was determined as 50%.

In turn, `CCC(O)(C#Cc1ccccc1)C(C)CN1CCN(c2cccc(Cl)c2)CC1` (stereo not drawn) [5-[4-(3-Chloro-phenyl)-piperazin-1-yl]-3-ethyl-4-methyl-1-phenyl-pent-1-yn-3-ol] gave an inhibition at 10 µM in experiment [1] of 46%.
